Measured values: patent publication US20090123389A1, “Methods for modulating Th17 cell development in the treatment and prevention of cellulite” (priority 2007, published 2009)

Legend:
TGFβ signaling = TGFβ signaling in T and B cells (Smad phosphorylation, lymphocyte responses to TGFβ); format: cell-based, mouse; details: HF 10 nM (2.5-40 nM for Smad); SB-431542 10 μM
Experimental: DMSO, 10 nM HF, 10 nM MAZ1310 or 10 μM SB-431542 was added as indicated at the time of activation and intracellular cytokine staining was performed on expanded T cells on day 5 as in FIG. 14B
FIG. 15B is an illustration depicting the analysis of CD8^+ T cells that were activated in the presence or absence of TGFβ and cultured with DMSO, 10 nM HF, 10 nM MAZ1310 or 10 μM SB-431542. Expanded cells were restimulated on day 5 and intracellular staining was performed as above.
FIG. 15C is an illustration depicting the analysis of CFSE-labeled B cells that were activated by LPS stimulation in the presence or absence of TGFβ plus DMSO, 10 nM HF, 10 nM MAZ1310 or 10 μM SB-431542. Intracellular IL-6 production in B cells re-stimulated with PMA plus ionomycin, or cell-surface IgA expression was determined 4 days after activation by FACS analyses.
T cells were then activated in the presence or absence of 3 ng/ml TGFβ. Whole cell extracts were prepared after 1 hour of stimulation and western blot analyses were performed using the indicated antibodies.
Western blotting: Whole cell lysates were generated from T cells activated for the indicated times. For STAT3 and Smad2/3 western blots cells were harvested, washed in PBS and lysed in 50 mM Tris, pH 7.4, 0.1% SDS, 1% Triton-×100, 140 mM NaCl, 1 mM EDTA, 1 mM EGTA supplemented with protease inhibitors tablets (Roche—Germany), 1 mM NaF and 1 mM Na3VO4. […]

fibrosis = details: in vitro; cited from earlier work

O=C(CC1NCCCC1O)Cn1cnc2cc(Br)c(Cl)cc2c1=O (racemic) [HF, 7-bromo-6-chloro-3-[3-(3-hydroxy-2-piperidinyl)-2-oxopropyl]-4(3H)-quinazolinone]
TGFβ-induced Smad phosphorylation and other lymphocyte responses to TGFβ (TGFβ signaling): inhibited neither | concentrations at which HF acts as an inhibitor of fibrosis (fibrosis): 1 to 200 nM
